Laboratory results published in patent US20210107953A1, “ACTIVE POLYPEPTIDE COMPOUND” (SHAANXI MICOT TECHNOLOGY LIMITED COMPANY, priority 2019, published 2021).

Key:
[1] = system: ovary removed SD rats (OVX induced rat osteoporosis model); experiment: Bone mineral density (DXA) in ovariectomy-induced osteoporosis rats; assay type: in vivo; conditions: for 0 w Bone mineral density lumbar vertebra / 0 w Bone mineral density thigh bone: 0 w (before administration, baseline); for 25 w Bone mineral density lumbar vertebra / 25 w Bone mineral density thigh bone / 0-25 w percentage of change % lumbar vertebra (bone mineral density) / 0-25 w percentage of change % thigh bone (bone mineral density): 5 times a week; for 0-25 w percentage of change % lumbar vertebra (bone mineral density) / 0-25 w percentage of change % thigh bone (bone mineral density): 25 w vs before administration
From the text: The animals had free access to water. […] 1) Bone mineral density (BMD) was detected with a dual-energy X-ray bone densitometry (DXA) before model establishment (−13 w), before administration (0 w), and 6 w, 12 w, 25 w, 37 w and 49 w after administration. […] The data were represented by mean value±standard error. Percentage of bone mineral density change=(bone mineral density at the detection time point−bone density before administration)/bone density before administration*100%

[2] = system: retinoic acid-induced osteoporosis rats; experiment: CT detection of bone microstructure of thigh bone in retinoic acid-induced osteoporosis rats; assay type: in vivo, SD rats; conditions: RA-induced osteoporosis rats, 12 w
Procedure: The data were represented by mean value±standard error. After the experiment was completed, thigh bone on the right side of rats were collected, and subjected to CT detection, and […] (BV/TV), the number of trabeculae (TbN) and trabeculae spacing (TbSp) were calculated, and the results were shown in Table 4. An example was selected from each of Control group, Model group, abaloptide group, 20 μg/kg dosage group of Example 1, 20 μg/kg dosage group of Example 2 and 20 μg/kg dosage group of Example 5, and the scanned figures by micron X-ray 3D imaging system of trochlea of their thigh bone were shown in FIG. 1.

[3] = system: retinoic acid-induced osteoporosis rats; experiment: Three-point mechanical test of thigh bone in retinoic acid-induced osteoporosis rats; assay type: in vivo, SD rats; conditions: 12 w; for Peak load of three-point mechanics (thigh bone): RA-induced osteoporosis rats
Procedure: Experimental method: SD rats were administered by gavage to induce a rat osteoporosis model. After model establishment, the rats were randomly grouped according to bone mineral densities of thigh bone: (1) vehicle group (Control group): normal saline was subcutaneously administered in an equal volume to the test compound, and soybean oil was administered by gavage in an equal volume to retinoic acid; (2) Model group: normal saline of the same volume was subcutaneously administered; and administered with retinoic acid (RA) by gavage every other day to maintain osteoporosis state; (3) 20 μg dosage group of positive drug abaloptide (Aba-20): 10 μg/kg abaloptide was subcutaneously administered, and retinoic acid was administered by gavage every other day. Administration groups of three dosages were set for each test compound. −10 μg/kg dosage group of the test compound: 10 μg/kg test compound was subcutaneously administered, and retinoic acid was administered by gavage every other day. −20 μg/kg dosage group of the test compound: 20 μg/kg test compound was subcutaneously administered, and retinoic acid was administered by gavage every other day. −40 μg/kg dosage group of the test compound: 40 μg/kg test compound was subcutaneously administered, and retinoic acid was administered by gavage every other day. The administration was carried out 5 times a week, with normal saline as the diluent of test drug, and the administration successively lasted for 12 weeks. The induction dosage of retinoic acid was about 80 mg/kg and the maintenance dosage after model establishment was about 30 mg/Kg, and solvent of inducing agent was soybean oil. […] The thigh bone on the left was subjected to three-point bending test, and the thigh bone on the right was subjected to CT scan and was used to prepare a pathological section. Statistical analysis of data: the data were treated with SPSS 20 software. The data in line with normality test were subjected to one-way analysis of variance; and the data not in line with normality test were subjected to rank sum test. The data were represented by mean value±standard error.

[4] = 5 μg/kg subcutaneous, listed as abaloptide

Ala-Val-Ser-Glu-His-Gln-Leu-Leu-His-Asp-Lys-Gly-Lys-Ser-Ile-Gln-Asp-Leu-Arg-Arg-Arg-Glu-Leu-Leu-Glu-Lys-Leu-Leu-Ala-Lys-Leu-His-Thr-Ala-Tyr-Arg-Gly-Phe-Gly-Gly (AVSEHQLLHDKGKSIQDLRRRELLEKLLAKLHTAYRGFGG; The sequence is synthesized) [Example 3]
0 w Bone mineral density lumbar vertebra ([1]; 2.5 μg/kg group): 0.24 ± 0 g/cm^2
0 w Bone mineral density thigh bone ([1]; 2.5 μg/kg group): 0.23 ± 0 g/cm^2
25 w Bone mineral density lumbar vertebra ([1]; 2.5 μg/kg subcutaneous): 0.27 ± 0 g/cm^2
25 w Bone mineral density thigh bone ([1]; 2.5 μg/kg subcutaneous): 0.26 ± 0 g/cm^2
0-25 w percentage of change % lumbar vertebra (bone mineral density) ([1]; 2.5 μg/kg subcutaneous): 12.4 ± 2.2 %
0-25 w percentage of change % thigh bone (bone mineral density) ([1]; 2.5 μg/kg subcutaneous): 14.03 ± 1.81 %
0 w Bone mineral density lumbar vertebra ([1]; 5 μg/kg group): 0.24 ± 0 g/cm^2
0 w Bone mineral density thigh bone ([1]; 5 μg/kg group): 0.23 ± 0 g/cm^2
25 w Bone mineral density lumbar vertebra ([1]; 5 μg/kg subcutaneous): 0.29 ± 0.01 g/cm^2
25 w Bone mineral density thigh bone ([1]; 5 μg/kg subcutaneous): 0.29 ± 0.02 g/cm^2
0-25 w percentage of change % lumbar vertebra (bone mineral density) ([1]; 5 μg/kg subcutaneous): 20.41 ± 2.56 %
0-25 w percentage of change % thigh bone (bone mineral density) ([1]; 5 μg/kg subcutaneous): 27.19 ± 1.33 %
0 w Bone mineral density lumbar vertebra ([1]; 10 μg/kg group): 0.24 ± 0.01 g/cm^2
0 w Bone mineral density thigh bone ([1]; 10 μg/kg group): 0.23 ± 0 g/cm^2
25 w Bone mineral density lumbar vertebra ([1]; 10 μg/kg subcutaneous): 0.29 ± 0.01 g/cm^2
25 w Bone mineral density thigh bone ([1]; 10 μg/kg subcutaneous): 0.29 ± 0 g/cm^2
0-25 w percentage of change % lumbar vertebra (bone mineral density) ([1]; 10 μg/kg subcutaneous): 22.46 ± 2.25 %
0-25 w percentage of change % thigh bone (bone mineral density) ([1]; 10 μg/kg subcutaneous): 28.7 ± 1.6 %
BV/TV (CT, thigh bone) ([2]; 10 μg/kg subcutaneous): 0.33
TbN, number of trabeculae (CT, thigh bone) ([2]; 10 μg/kg subcutaneous): 4.17 mm^−1
TbSp, trabeculae spacing (CT, thigh bone) ([2]; 10 μg/kg subcutaneous): 0.20 mm
BV/TV (CT, thigh bone) ([2]; 20 μg/kg subcutaneous): 0.30
TbN, number of trabeculae (CT, thigh bone) ([2]; 20 μg/kg subcutaneous): 4.21 mm^−1
TbSp, trabeculae spacing (CT, thigh bone) ([2]; 20 μg/kg subcutaneous): 0.17 mm
BV/TV (CT, thigh bone) ([2]; 40 μg/kg subcutaneous): 0.39
TbN, number of trabeculae (CT, thigh bone) ([2]; 40 μg/kg subcutaneous): 4.22 mm^−1
TbSp, trabeculae spacing (CT, thigh bone) ([2]; 40 μg/kg subcutaneous): 0.15 mm
Peak load of three-point mechanics (thigh bone) ([3]; 10 μg/kg subcutaneous): 97.65 N
Peak load of three-point mechanics (thigh bone) ([3]; 20 μg/kg subcutaneous): 126.54 N
Peak load of three-point mechanics (thigh bone) ([3]; 40 μg/kg subcutaneous): 131.74 N

abaloptide [reference compound]
0 w Bone mineral density lumbar vertebra ([1]; 5 μg/kg group): 0.24 ± 0 g/cm^2
0 w Bone mineral density thigh bone ([1]; 5 μg/kg group): 0.23 ± 0 g/cm^2
25 w Bone mineral density lumbar vertebra ([1]; 5 μg/kg subcutaneous): 0.3 ± 0 g/cm^2
25 w Bone mineral density thigh bone ([1]; 5 μg/kg subcutaneous): 0.3 ± 0 g/cm^2
0-25 w percentage of change % lumbar vertebra (bone mineral density) ([1]; 5 μg/kg subcutaneous): 21.66 ± 2.12 %
0-25 w percentage of change % thigh bone (bone mineral density) ([1]; 5 μg/kg subcutaneous): 30.28 ± 2 %
0-25 w percentage of change % lumbar vertebra (bone mineral density) [1, 4]: 21.66±2.12%
0-25 w percentage of change % thigh bone (bone mineral density) [1, 4]: 30.28±2%
BV/TV (CT, thigh bone) ([2]; 20 μg/kg subcutaneous): 0.28
TbN, number of trabeculae (CT, thigh bone) ([2]; 20 μg/kg subcutaneous): 3.4 mm^−1
TbSp, trabeculae spacing (CT, thigh bone) ([2]; 20 μg/kg subcutaneous): 0.22 mm
peak load of thigh bone compared with Model group ([3]; 20 μg/kg dosage group): did not significantly increase
Peak load of three-point mechanics (thigh bone) ([3]; 20 μg/kg subcutaneous): 119.57 N
